Assay results as given in patent US20080069896A1, “Antitumor Composition” (Kabushiki Kaisha Sangi, priority 2004, published 2008).
Read-outs that look alike come from different tables or passages of the source.

Key:
[1] = tested on: fibroblasts at confluency; assay: Microscopic observation of toxicity effect during resting stage; type: cell-based, rat
Excerpt: A male mature rat was deeply anesthetized with ether, and disinfected by wiping carefully its tail with alcohol. The tail end part was cut by several centimeters, and the skin was removed from coccyx. Tendon was attached to the coccyx, and by culturing the same, fibroblasts can be recovered. Coccyx part was further cut finely with a sterilized pair of scissors, and adhered on a sterilized plastic plate with the cut surface down. After resting the plate for a while, DMEM supplemented with 10% FBS was added thereto. In approximately one week, fibroblasts germinated from the coccyx part, and proliferated in the plate. The fibroblasts collected from rat tail end were used for the following experiment.
From the result of Example 7, 2 ppm which is a value of platinum content that kills 50% of fibroblasts in CDDP during resting stage was set as a standard. Then, CDDP, PtCl4/HAP, PtCl4 and HAP dispersion liquids in an amount corresponding to 2 ppm of platinum content, were added to the fibroblasts at confluency in a medium, and cultured for 48 hours.

[2] = tested on: human lung cancer cell Lu65; assay: MTT assay, human lung cancer cell Lu65; type: cell-based
Experimental: (§1) Effect of platinum tetrachloride/hydroxyapatite (PtCl4/HAP) and hexachloroplatinate/hydroxyapatite (H2PtCl6/HAP) against human cancer cells (MTT assay)
(§2) According to “in vitro toxicity test using MTT”, which is an ordinary test method, MTT assay was performed for PtCl4/HAP (particle diameter 0.1 μm or less), and H2PtCl6/HAP (particle diameter 0.1 μm or less) by using 19 types of human cancer cells. PtCl4/HAP and H2PtCl6/HAP were used by adjusting the final dispersion concentration to 1.0% in a dispersion liquid each containing 10% platinum as a theoretical value. For comparison, MTT assay was performed for PtCl4 and CDDP. PtCl4 was dissolved at an adequate dose, and then used after serial dilution with PBS (−). For CDDP, injection liquid from Malco was used.

[3] = tested on: human lung cancer cell Lu99; assay: MTT assay, human lung cancer cell Lu99; type: cell-based
Experimental: as §1, §2

[4] = Lu65, platinum compound without hydroxyapatite, for comparison
[5] = Lu99, platinum compound without hydroxyapatite, for comparison

platinum tetrachloride/hydroxyapatite [PtCl4/HAP]
Microscopic observation of cell form of cultured fibroblasts [1]: fibroblasts did not lose their original form

[Cl][Pt-2]([Cl])([Cl])[Cl] [H2PtCl4, tetrachloroplatinate]
IC50 of human lung cancer cells by MTT assay [2, 4]: 8.8 ppm | Platinum content calculated from IC50 of human lung cancer cell by MTT assay [2, 4]: 5.1 ppm | IC50 of human lung cancer cells by MTT assay [3, 5]: 9.1 ppm

Hydroxyapatite [HAP]
Microscopic observation of cell form of cultured fibroblasts [1]: almost no abnormality was observed

[Cl][Pt-2]([Cl])([Cl])[Cl].[Na+].[Na+] [Na2PtCl4, disodium platinum tetrachloride]
IC50 of human lung cancer cells by MTT assay [2, 4]: 8.8 ppm | Platinum content calculated from IC50 of human lung cancer cell by MTT assay [2, 4]: 4.5 ppm | IC50 of human lung cancer cells by MTT assay [3, 5]: 9.2 ppm | Platinum content calculated from IC50 of human lung cancer cell by MTT assay [3, 5]: 4.7 ppm

[Cl][Pt-2]([Cl])([Cl])[Cl].[K+].[K+] [K2PtCl4, dipotassium platinum tetrachloride]
IC50 of human lung cancer cells by MTT assay [2, 4]: 58.2 ppm | Platinum content calculated from IC50 of human lung cancer cell by MTT assay [2, 4]: 27.4 ppm | IC50 of human lung cancer cells by MTT assay [3, 5]: 12.1 ppm | Platinum content calculated from IC50 of human lung cancer cell by MTT assay [3, 5]: 5.7 ppm

[Cl][Pt-2]([Cl])([Cl])([Cl])([Cl])[Cl].[H+].[H+] [H2PtCl6, hexachloroplatinate]
IC50 of human lung cancer cells by MTT assay [2]: 11.1 ppm | Platinum content calculated from IC50 of human lung cancer cell by MTT assay [2]: 5.3 ppm | IC50 of human lung cancer cells by MTT assay [3]: 7.2 ppm | Platinum content calculated from IC50 of human lung cancer cell by MTT assay [3]: 3.4 ppm
